Data as given in publication PMC10693969 (Parasites, Hosts and Diseases, 2023).
Where “and” joins values, the source holds several entries; their conditions need not be identical. Equal entries are not always repeated. Where two headings read alike, the source gives them in different places.

Assays:
[1] = tested on: A. castellanii (ATCC-30868) trophozoites; experiment: In vitro anti-Acanthamoeba activity, A. castellanii trophozoite viability; assay type: cell-based; conditions: for SI, sensitivity index (CC50 C6 glial cells / IC50 A. castellanii): ratio CC50 C6 glial cells / IC50 A. castellanii; for antiamoebic activity against A. castellanii (in words): in vitro
[2] = tested on: C6 rat glial cells (ATCC CCL-107); experiment: Cytotoxicity against C6 glial cells; assay type: cell-based
[3] = tested on: Naegleria fowleri trophozoites (Carter NF69 strain, ATCC 30215); experiment: In vitro anti-N. fowleri activity, trophozoite viability; assay type: cell-based; conditions: for SI, sensitivity index (CC50 C6 glial cells / IC50 N. fowleri): ratio CC50 C6 glial cells / IC50 N. fowleri; for antiamoebic activity against N. fowleri (in words): in vitro
[4] = tested on: A. polyphaga (ATCC-30461) trophozoites; experiment: In vitro anti-Acanthamoeba activity, A. polyphaga trophozoite viability; assay type: cell-based; conditions: for SI, sensitivity index (CC50 C6 glial cells / IC50 A. polyphaga): ratio CC50 C6 glial cells / IC50 A. polyphaga; for antiamoebic activity against A. polyphaga (in words): in vitro
[5] = tested on: murine macrophages J774A.1; conditions: cited from earlier work
[6] = Cytotoxicity against C6 glial cells; assay type: cell-based, rat; conditions: rat, C6 glial cells
[7] = tested on: A. castellanii trophozoites; conditions: cited from earlier work
[8] = read-out: A. castellanii (IC50 ±SD), trophozoites, 0–400 μM, 25°C, 48 h, mean±SD of 3 independent experiments
[9] = read-out: N. fowleri (IC50 ±SD), trophozoites, 0–400 μM, 37°C, 48 h, mean±SD of 3 independent experiments
[10] = read-out: A. polyphaga (IC50 ±SD), trophozoites, 0–400 μM, 25°C, 48 h, mean±SD of 3 independent experiments
[11] = Acanthamoeba castellanii, ATCC30868, 48 h, read-out: A. castellanii (IC50 ±SD, μM), trophozoites, 0–400 μM, 25°C, 48 h, mean±SD of 3 independent experiments
[12] = Naegleria fowleri, ATCC30215, 48 h, read-out: N. fowleri (IC50 ±SD, μM), trophozoites, 0–400 μM, 37°C, 48 h, mean±SD of 3 independent experiments
[13] = Acanthamoeba polyphaga, ATCC30461, 48 h, read-out: A. polyphaga (IC50 ±SD, μM), trophozoites, 0–400 μM, 25°C, 48 h, mean±SD of 3 independent experiments

Row | SMILES | SI, sensitivity index (CC50 C6 glial cells / IC50 A. castellanii) [1] | IC50 [1, 8] | SI, sensitivity index (CC50 C6 glial cells / IC50 N. fowleri) [3] | IC50 [3, 9] | antiamoebic activity against N. fowleri (in words) ([3]; trophozoites) | SI, sensitivity index (CC50 C6 glial cells / IC50 A. polyphaga) [4] | IC50 [4, 10] | IC50 [1, 11] | cytotoxicity to C6 glial cells (in words) [2] | CC50 [6] | IC50 [3, 12] | IC50 [4, 13] | antiamoebic activity against A. castellanii (in words) ([1]; trophozoites) | antiamoebic activity against A. polyphaga (in words) ([4]; trophozoites) | also measured
1 | Oc1cc(O)c2c(c1)O[C@H](c1cc(O)c(O)c(O)c1)[C@H](O)C2 [(−)-Epigallocatechin, (−)-epigallocatechin] | 8.68 | 32.1 ± 1.03 µM | 2.44 | 114.6 ± 0.48 µM | did not show significative anti-N. fowleri activities | 11.55 | 24.16 ± 0.16 µM |  |  |  |  |  |  |  | SI, sensitivity index (CC50 C6 glial cells / IC50 A. castellanii) ([1]; listed as (−)-epigallocatechin): > 8; IC50 ([1]; read-out: A. castellanii (IC50 ±SD), trophozoites, 0–400 μM, 25°C, 48 h, mean±SD of 3 independent experiments, listed as (−)-epigallocatechin): < 50 µM; CC50 ([2]; read-out: C6 glial cells (CC50 ±SD), C6 rat glial cells, 0–400 μM, mean±SD of 3 independent assays): 279 ± 0.3 µM; SI, sensitivity index (CC50 C6 glial cells / IC50 A. polyphaga) ([4]; listed as (−)-epigallocatechin): > 8; IC50 ([4]; read-out: A. polyphaga (IC50 ±SD), trophozoites, 0–400 μM, 25°C, 48 h, mean±SD of 3 independent experiments, listed as (−)-epigallocatechin): < 50 µM
2 | O=c1cc(-c2ccc(O)cc2)oc2cc(O)cc(O)c12 [Apigenin, apigenin] | 5.60 | 43.4 ± 0.8 µM | 2.57 |  | did not show significative anti-N. fowleri activities | 8.58 | 28.33 ± 0.13 µM | < 50 µM | did not show significative cytotoxicity | 243.1 ± 0.98 µM | 94.65 ± 0.58 µM | < 50 µM |  |  | cytotoxicity against murine macrophages J774A.1 (in words) [5]: potential cytotoxicity
3 | COc1ccc2c(c[n+](C)c3c4cc5c(cc4ccc23)OCO5)c1OC [Chelerythrine, chelerythrine chloride] |  |  | 1.39 |  | strong antiamoebic activity |  |  |  | potent cytotoxicity | 16.4 ± 0.45 µM |  |  | did not exhibit potential or selective antiamoebic activity | did not exhibit potential or selective antiamoebic activity | IC50 ([1]; Acanthamoeba castellanii, ATCC30868, 48 h, read-out: A. castellanii (IC50 ±SD, μM)): 148.1 ± 1.38 µM; cytotoxicity to C6 glial cells (in words) ([2]; listed as chelerythrine): strong toxicity; IC50 ([3]; Naegleria fowleri, ATCC30215, 48 h, read-out: N. fowleri (IC50 ±SD, μM)): 11.8 ± 1.15 µM; IC50 ([4]; Acanthamoeba polyphaga, ATCC30461, 48 h, read-out: A. polyphaga (IC50 ±SD, μM)): 102 ± 1.4 µM
4 | COc1cc(/C=C/C(O)=C/C(=O)/C=C/c2ccc(O)cc2)ccc1O [Demethoxycurcumin, demethoxycurcumin] | >8.19 | 36.1 ± 0.82 µM | > 7 | 27.1 ± 0.35 µM |  | >13.48 | 21.93 ± 0.18 µM | < 50 µM |  | > 296 µM | < 30 µM |  |  |  | SI, sensitivity index (CC50 C6 glial cells / IC50 A. castellanii) ([1]; listed as demethoxycurcumin): > 8; IC50 ([1]; read-out: A. castellanii (IC50 ±SD), trophozoites, 0–400 μM, 25°C, 48 h, mean±SD of 3 independent experiments, listed as demethoxycurcumin): < 40 µM; SI, sensitivity index (CC50 C6 glial cells / IC50 N. fowleri) ([3]; listed as demethoxycurcumin): > 8; IC50 ([3]; read-out: N. fowleri (IC50 ±SD), trophozoites, 0–400 μM, 37°C, 48 h, mean±SD of 3 independent experiments, listed as demethoxycurcumin): < 40 µM; SI, sensitivity index (CC50 C6 glial cells / IC50 A. polyphaga) ([4]; listed as demethoxycurcumin): > 8; IC50 ([4]; read-out: A. polyphaga (IC50 ±SD), trophozoites, 0–400 μM, 25°C, 48 h, mean±SD of 3 independent experiments, listed as demethoxycurcumin): < 40 µM; toxicity to A. castellanii trophozoites (in words) [7]: toxic
5 | O=c1c(O)c(-c2ccc(O)cc2)oc2cc(O)cc(O)c12 [Kaempferol, kaempferol] | 15.43 | 21.6 ± 1.28 µM | 12.00 | 27.8 ± 0.33 µM |  | 11.67 | 28.6 ± 1.17 µM |  |  | 333.8 ± 0.99 µM | < 30 µM | < 50 µM |  |  | SI, sensitivity index (CC50 C6 glial cells / IC50 A. castellanii) ([1]; listed as kaempferol): > 8; IC50 ([1]; read-out: A. castellanii (IC50 ±SD), trophozoites, 0–400 μM, 25°C, 48 h, mean±SD of 3 independent experiments, listed as kaempferol): < 40 µM; SI, sensitivity index (CC50 C6 glial cells / IC50 N. fowleri) ([3]; listed as kaempferol): > 7 and > 8; IC50 ([3]; read-out: N. fowleri (IC50 ±SD), trophozoites, 0–400 μM, 37°C, 48 h, mean±SD of 3 independent experiments, listed as kaempferol): < 40 µM; SI, sensitivity index (CC50 C6 glial cells / IC50 A. polyphaga) ([4]; listed as kaempferol): > 8; IC50 ([4]; read-out: A. polyphaga (IC50 ±SD), trophozoites, 0–400 μM, 25°C, 48 h, mean±SD of 3 independent experiments, listed as kaempferol): < 40 µM
6 | O=c1cc(-c2ccc(O)c(O)c2)oc2cc(O)cc(O)c12 [Luteolin, luteolin] |  |  |  | 27.4 ± 0.61 µM |  |  |  | > 350 µM |  | > 350 µM | < 30 µM | 40.2 ± 0.47 µM | not effective | effective | 
